Laboratory results from ChEMBL document CHEMBL4304757, “Synthetic heterocyclic candidates as promising α-glucosidase inhibitors: An overview” (Eur J Med Chem, 2019).
Each block holds one compound with its values, some of them ahead of it.

Columns and labels:
Alpha glucosidase [1] = molecular target: T1, Alpha glucosidase (Homo sapiens, UniProt O43451+P10253+P14410+Q2M2H8); test: Inhibition of alpha-glucosidase (unknown origin) using p-nitro phenyl glucopyranoside as substrate preincubated for 10 mins followed by substrate addition measured after 10 mins; assay type: protein assay
Alpha glucosidase [2] = molecular target: T1, Alpha glucosidase; test: Inhibition of alpha-glucosidase (unknown origin) using p-nitrophenyl-alpha-d-glucopyranoside as substrate preincubated for 10 mins followed by substrate addition measured after 20 mins; assay type: protein assay
[3] = Inhibition of yeast alpha-glucosidase using p-nitrophenyl-alpha-d-glucopyranoside as substrate preincubated for 15 mins followed by substrate addition measured after 30 mins; set-up: species or system Saccharomyces cerevisiae
[4] = Inhibition of yeast alpha-glucosidase using p-nitrophenyl-alpha-d-glucopyranoside as substrate preincubated with enzyme followed by substrate addition measured after 30 mins; set-up: species or system Saccharomyces cerevisiae
Alpha glucosidase [5] = molecular target: T1, Alpha glucosidase; test: Inhibition of alpha-glucosidase (unknown origin) using p-nitrophenyl-alpha-d-glucopyranoside as substrate preincubated for 5 mins followed by substrate addition measured after 30 mins; assay type: protein assay
MDA-MB-231 = test: Cytotoxicity against human MDA-MB-231 cells assessed as reduction in cell viability at 100 uM relative to control; assay type: functional, cell-based
[6] = Inhibition of yeast alpha-glucosidase using p-nitrophenyl-alpha-d-glucopyranoside as substrate preincubated for 15 mins followed by substrate addition measured after 20 mins; set-up: species or system Saccharomyces cerevisiae
[7] = Inhibition of mouse alpha-glucosidase
[8] = Inhibition of yeast alpha-glucosidase; set-up: species or system Saccharomyces cerevisiae
Alpha glucosidase [9] = molecular target: T1, Alpha glucosidase; test: Inhibition of alpha-glucosidase (unknown origin) using p-nitro phenyl glucopyranoside as substrate preincubated for 10 mins followed by substrate addition measured after 30 mins; assay type: protein assay

- IC50 (Alpha glucosidase [1]): 0.55 to 35 µM
SMILES: O=C1NC(=O)/C(=C\c2ccc(-n3cc([N+](=O)[O-])cn3)cc2)S1

- IC50 (Alpha glucosidase [2]): 20 to 180 µM
SMILES: Nc1c(C(c2cccc(Br)c2)c2c(N)c3ccccc3oc2=O)c(=O)oc2ccccc12

- IC50 [3]: 60 to 180 µM
SMILES: COc1cc(C2C(C#N)=C(N)Oc3n[nH]c(C)c32)ccc1OCc1ccccc1 (configuration not stated)

- IC50 [4]: 2.1 to 289 µM
SMILES: O=C1/C(=C/c2cn(-c3ccccc3)nc2-c2cc3ccccc3oc2=O)C(c2ccccc2)=NN1c1ccccc1

- IC50 (Alpha glucosidase [5]): > 100 µM
SMILES: Cc1ccc(C)c(N2C(=O)/C(=C/c3ccc(F)cc3)S/C2=N\NC(=O)c2cc3ccccc3oc2=O)c1
- Activity (MDA-MB-231): >=76%

- IC50 (Alpha glucosidase [5]): > 100 µM
SMILES: Cc1cccc(N2C(=O)/C(=C/c3ccc(F)cc3)S/C2=N\NC(=O)c2cc3ccccc3oc2=O)c1C
- Activity (MDA-MB-231): >=76%

- IC50 (Alpha glucosidase [2]): 20 to 180 µM
SMILES: Nc1c(C(c2cccc(Cl)c2)c2c(N)c3ccccc3oc2=O)c(=O)oc2ccccc12

- IC50 [6]: 2.2 to 21 µM
SMILES: CN1CCN(c2ccc3nc(-c4ccc(N(C)C)cc4)[nH]c3c2)CC1

- IC50 [7]: 98 to 413 µM
- IC50 [8]: 97 to 119 µM
SMILES: COc1ccc(/C=C/C(=O)C2=C(/C=C/c3ccc(OC)c(O)c3)Oc3[nH]c(=O)[nH]c(=O)c3C2c2ccc(Cl)cc2)cc1O (configuration not stated)

- IC50 (Alpha glucosidase [2]): 20 to 180 µM
SMILES: Nc1c(C(c2ccccc2Cl)c2c(N)c3ccccc3oc2=O)c(=O)oc2ccccc12

- IC50 [4]: 2.1 to 289 µM
SMILES: CC1=NN(c2ccccc2)C(=O)/C1=C/c1cn(-c2ccccc2)nc1-c1cc2ccccc2oc1=O

SMILES: CN1CCN(c2ccc3nc(-c4ccc(O)c(O)c4)[nH]c3c2)CC1
- IC50 [6]: 2.2 to 21 µM

- IC50 (Alpha glucosidase [2]): 20 to 180 µM
SMILES: Cc1cccc(C(c2c(N)c3ccccc3oc2=O)c2c(N)c3ccccc3oc2=O)c1

- IC50 [3]: 60 to 180 µM
SMILES: Cc1[nH]nc2c1C(c1ccc(O)c(OCc3ccccc3)c1)C(C#N)=C(N)O2 (configuration not stated)

- IC50 [6]: 3.4 to 20 µM
SMILES: Clc1ccc(-c2nc3ccc(N4CCOCC4)cc3[nH]2)cc1

- IC50 [3]: 54 µM
SMILES: Cc1n[nH]c2c1C(c1ccc([N+](=O)[O-])cc1)C(C#N)=C(N)O2 (configuration not stated)

- IC50 (Alpha glucosidase [2]): 20 to 180 µM
SMILES: Nc1c(C(c2ccc(O)cc2)c2c(N)c3ccccc3oc2=O)c(=O)oc2ccccc12

- IC50 (Alpha glucosidase [5]): 0.09 to 1.6 µM
SMILES: COc1ccc(N2C(=O)/C(=C/c3ccc(F)cc3)S/C2=N\NC(=O)c2cc3ccccc3oc2=O)cc1
- Activity (MDA-MB-231): >=76%

SMILES: CN1CCN(c2ccc3[nH]c(-c4ccc(O)cc4)nc3c2)CC1
- IC50 [6]: 2.2 µM

- IC50 (Alpha glucosidase [2]): 20 to 180 µM
SMILES: COc1cccc(C(c2c(N)c3ccccc3oc2=O)c2c(N)c3ccccc3oc2=O)c1

- IC50 [3]: 60 to 180 µM
SMILES: Cc1n[nH]c2c1C(c1ccc(Cl)cc1Cl)C(C#N)=C(N)O2 (configuration not stated)

- IC50 (Alpha glucosidase [2]): 20 to 180 µM
SMILES: COc1cc(C(c2c(N)c3ccccc3oc2=O)c2c(N)c3ccccc3oc2=O)cc(Cl)c1O

- IC50 [3]: 3.6 µM
SMILES: c1ccc2c(c1)c1ccccc1n2Cc1cn(Cc2ccc(Cn3cc(Cn4c5ccccc5c5ccccc54)nn3)cc2)nn1

- IC50 (Alpha glucosidase [5]): 0.09 to 1.6 µM
SMILES: Cc1ccccc1N1C(=O)/C(=C/c2ccc(F)cc2)S/C1=N\NC(=O)c1cc2ccccc2oc1=O
- Activity (MDA-MB-231): >=76%

- IC50 (Alpha glucosidase [5]): 0.09 to 1.6 µM
SMILES: COc1cccc(N2C(=O)/C(=C/c3ccc(F)cc3)S/C2=N\NC(=O)c2cc3ccccc3oc2=O)c1
- Activity (MDA-MB-231): >=76%

SMILES: CN1CCN(c2ccc3nc(-c4ccc(Cl)cc4)[nH]c3c2)CC1
- IC50 [6]: 2.2 to 21 µM

- IC50 [6]: 2.2 to 21 µM
SMILES: COc1cc(-c2nc3ccc(N4CCN(C)CC4)cc3[nH]2)ccc1O

- IC50 [4]: 2.1 to 289 µM
SMILES: CC1=NN(c2ccc(C)cc2)C(=O)/C1=C/c1cn(-c2ccccc2)nc1-c1cc2ccccc2oc1=O

- IC50 [4]: 2.1 µM
SMILES: CC1=NN(c2ccc([N+](=O)[O-])cc2)C(=O)/C1=C/c1cn(-c2ccccc2)nc1-c1cc2cc(Br)ccc2oc1=O

- IC50 [6]: 3.4 to 20 µM
SMILES: CN(C)c1ccc(-c2nc3ccc(N4CCOCC4)cc3[nH]2)cc1

- IC50 (Alpha glucosidase [2]): 20 to 180 µM
SMILES: Nc1c(C(c2cccc(F)c2)c2c(N)c3ccccc3oc2=O)c(=O)oc2ccccc12

- IC50 (Alpha glucosidase [5]): 0.09 to 1.6 µM
SMILES: Cc1cc(C)cc(N2C(=O)/C(=C/c3ccc(F)cc3)S/C2=N\NC(=O)c2cc3ccccc3oc2=O)c1
- IC50 (MDA-MB-231; Homo sapiens, MDA-MB-231): 0.09 to 1.6 µM

- IC50 [4]: 2.1 to 289 µM
SMILES: CC1=NN(c2ccccc2)C(=O)/C1=C/c1cn(-c2ccccc2)nc1-c1ccc(-c2ccccc2)cc1

- IC50 [3]: 0.61 to 1 µM
SMILES: O=C(Cn1cc(Cn2c3ccccc3c3ccccc32)nn1)c1ccc(O)c(Br)c1

- IC50 (Alpha glucosidase [5]): 0.09 to 1.6 µM
SMILES: Cc1ccc(N2C(=O)/C(=C/c3ccc(F)cc3)S/C2=N\NC(=O)c2cc3ccccc3oc2=O)c(C)c1
- Activity (MDA-MB-231): >=76%

- IC50 [3]: 6.5 µM
SMILES: O=C(c1ccc(O)cc1)C1Cc2c(ccc3ccccc23)O1 (configuration not stated)

- IC50 [3]: 6.8 µM
SMILES: Cc1ncc([N+](=O)[O-])n1Cn1cc(Cn2c3ccccc3c3ccccc32)nn1

- IC50 (Alpha glucosidase [1]): 0.55 to 35 µM
SMILES: Cc1nccn1-c1ccc(/C=C2/SC(=O)NC2=O)cc1

- IC50 (Alpha glucosidase [9]): 6.2 to 81 µM
SMILES: O=C(N/N=C/c1cc(O)ccc1O)c1nc(-c2cc3ccccc3oc2=O)cs1
